Test results published in US10633542B2, “Azacyanine dyes and use thereof” (Ecole Polytechnique Fédérale de Lausanne (EPFL), priority 2018, dated 2020).
Where “and” joins values, the source holds several entries; their conditions need not be identical. Identical values can stand only once.

Experiments:
[1] = in methanol, calibration standard; cited from earlier work
[2] = cited from earlier work
[3] = system: necrotic tissue; assay: Necrosis imaging in vivo after cardiotoxin injection; design: species or system mouse
Description: Cardiotoxin (10 μM in 50 μL of PBS) was injected into the right thigh of the mouse and 50 μL of PBS was injected into the left thigh. 24 hours post-injection of toxin, Compound VIII ([…] in 100 μL PBS) was injected intravenously into the tail of the mouse. […] The results are shown below in FIG. 20-22. The brightnesses of the images are not on scale with one another. The quantification is shown on the same graph. Significant signal over-background ratios resulting from accumulation of the dye in necrosis areas observed as early as 10 min post-injection of the Compound VIII making it ideal for clinical translation.

[4] = system: A431 cells; assay: Cell uptake in live cells; type: cell-based; settings: for Average values: average of wells; for Avg Radiant Efficiency: single wells
Description: Therefore, we performed such experiments in live cells with Compound VIII compound. […] The following procedure was used:
Cells were grown in 96 well plates to confluent level. Media was removed, cells washed with PBS, incubated for a set time (5, 15, or 30 minutes) at varying concentrations of the dye (5 μM, 10 μM, and 25 μM) in PBS. Dye was removed, cells washed twice with PBS, then PBS added for imaging.
The values for each well were consistent with that of the control group of wells that were not exposed to the dye in wells A1-A3. The bright well at F12 is a solution of Compound VIII at 5 μM in PBS to insure imaging of the dye is occurring.

[5] = Shortwave infrared / NIR-II imaging with SWIR camera system; type: physicochemical; settings: commercial SWIR camera system
Text: It was already shown that in the NIR-II region there is less absorption and […] enabling 2 times deeper imaging with much higher resolution respectively. […] The results are shown on FIG. 24. The camera used for obtaining the data has the following specs: “Princeton NIRvana detector, IsoPlane SCT320 spectrometer, Nikon inverted microscope, 658 nm, 785 nm and Xenon lamp/monochromator illumination sources” The other derivatives of aza-cyanine analogs covered in the current invention are currently being tested to find the optimal SWIR imaging dye.

[6] = system: sliced skin tissue of a nude mouse (dry-ice treated); assay: Ex vivo cell death assay, cryogenic tissue damage; settings: 1 uM, 5 uM, 10 uM, 10 min at room temperature
Description: Ex vivo cell death assay for compounds, VI and XIV were studied using a method of cryogenic tissue damage. Briefly, a bar of a dry ice was applied to sliced skin tissue of a nude mouse recently sacrificed in a petri dish for a period of 60 sec. Subsequently, the skin tissue samples were incubated with different concentrations of dye VI and XIV (1 uM, 5 uM, and 10 uM) for 10 min at room temperature.

## CC1(C)C(/C=C/C=C/C=C/C=C2\N(CCCCS(=O)(=O)O)c3ccc4ccccc4c3C2(C)C)=[N+](CCCCS(=O)(=O)[O-])c2ccc3ccccc3c21 [ICG, Indocyanine Green]
[1]
  fluorescence quantum yield (QY): 7.8%
[2]
  solubility in saline: not readily soluble

## CN1C=CC=C2C1=N/C(=C\C=C1/C[N+](C)(C)CC(/C=C/C3=Nc4c(ccc[n+]4C)C3(C)C)=C1Cl)C2(C)C.I [Compound VIII]
[3]; cardiotoxin in right thigh, dye 40 μmoles in 100 μL PBS intravenously 24 hours later
  targeting of necrotic area in vivo: selectively targets the necrotic area
[3]; mouse, intravenous
  clearance route: clears through the kidneys instead of accumulating in the liver
  time post-injection at which significant signal over-background ratios are observed: 10 min
[4]; 5 μM, 5 minutes
  Average values: 1.49E+07 [p/s/cm^2/sr]/[μW/cm^2]
  Avg Radiant Efficiency: 1.64E+07 [p/s/cm^2/sr]/[μW/cm^2] and 1.47E+07 [p/s/cm^2/sr]/[μW/cm^2] and 1.36E+07 [p/s/cm^2/sr]/[μW/cm^2]
[4]; 5 μM, 15 minutes
  Average values: 1.24E+07 [p/s/cm^2/sr]/[μW/cm^2]
  Avg Radiant Efficiency: 1.29E+07 [p/s/cm^2/sr]/[μW/cm^2] and 1.23E+07 [p/s/cm^2/sr]/[μW/cm^2] and 1.19E+07 [p/s/cm^2/sr]/[μW/cm^2]
[4]; 5 μM, 30 minutes
  Average values: 1.17E+07 [p/s/cm^2/sr]/[μW/cm^2]
  Avg Radiant Efficiency: 1.18E+07 [p/s/cm^2/sr]/[μW/cm^2] and 1.16E+07 [p/s/cm^2/sr]/[μW/cm^2] and 1.17E+07 [p/s/cm^2/sr]/[μW/cm^2]
[4]; 10 μM, 5 minutes
  Average values: 1.39E+07 [p/s/cm^2/sr]/[μW/cm^2]
  Avg Radiant Efficiency: 1.50E+07 [p/s/cm^2/sr]/[μW/cm^2] and 1.39E+07 [p/s/cm^2/sr]/[μW/cm^2] and 1.28E+07 [p/s/cm^2/sr]/[μW/cm^2]
[4]; 10 μM, 15 minutes
  Average values: 1.20E+07 [p/s/cm^2/sr]/[μW/cm^2]
  Avg Radiant Efficiency: 1.24E+07 [p/s/cm^2/sr]/[μW/cm^2] and 1.18E+07 [p/s/cm^2/sr]/[μW/cm^2] and 1.17E+07 [p/s/cm^2/sr]/[μW/cm^2]
[4]; 10 μM, 30 minutes
  Average values: 1.15E+07 [p/s/cm^2/sr]/[μW/cm^2]
  Avg Radiant Efficiency: 1.16E+07 [p/s/cm^2/sr]/[μW/cm^2] and 1.15E+07 [p/s/cm^2/sr]/[μW/cm^2] and 1.13E+07 [p/s/cm^2/sr]/[μW/cm^2]
[4]; 25 μM, 5 minutes
  Average values: 1.33E+07 [p/s/cm^2/sr]/[μW/cm^2]
  Avg Radiant Efficiency: 1.39E+07 [p/s/cm^2/sr]/[μW/cm^2] and 1.34E+07 [p/s/cm^2/sr]/[μW/cm^2] and 1.27E+07 [p/s/cm^2/sr]/[μW/cm^2]
[4]; 25 μM, 15 minutes
  Average values: 1.20E+07 [p/s/cm^2/sr]/[μW/cm^2]
  Avg Radiant Efficiency: 1.22E+07 [p/s/cm^2/sr]/[μW/cm^2] and 1.20E+07 [p/s/cm^2/sr]/[μW/cm^2] and 1.19E+07 [p/s/cm^2/sr]/[μW/cm^2]
[4]; 25 μM, 30 minutes
  Average values: 1.20E+07 [p/s/cm^2/sr]/[μW/cm^2]
  Avg Radiant Efficiency: 1.20E+07 [p/s/cm^2/sr]/[μW/cm^2]
[4]; long incubation periods (30 min), high concentrations (25 uM)
  uptake in live A431 cells: No uptake
[4]; wells B1-C10, 5-25 μM, 5-30 minutes
  radiance of wells incubated with the dye compared to that of the control: no significant difference
[5]
  absorption in the NIR-II region: absorbs in the NIR-II region

## CC1(C)C2=CC=CN(CCCCCC(=O)O)C2=N/C1=C/C=C1\C[N+](C)(C)CC(/C=C/C2=Nc3c(ccc[n+]3CCCCCC(=O)O)C2(C)C)=C1Oc1ccc(S(=O)(=O)O)cc1.[Na+] [dye XIV]
[6]
  fluorescence at the site of focal dry-ice treatment: strong accumulation of fluorescence

## CC1(C)C2=CC=CN(CCCCCC(=O)O)C2=N/C1=C/C=C1\C[N+](C)(C)CC(/C=C/C2=Nc3c(ccc[n+]3CCCCCC(=O)O)C2(C)C)=C1Cl [dye VI]
[6]
  fluorescence at the site of focal dry-ice treatment: strong fluorescence signal
  signal from the viable cells: no signal
[5]
  absorption in the NIR-II region: absorbs in the NIR-II region
